Measured values taken from PMC12542817, “LaIT6: A Novel Insect-Selective K^+-Channel Toxin from Liocheles australasiae Scorpion Venom” (Molecules, 2025).
Where two headings read alike, the source gives them in different places. Where a SMILES comes first, the peptide text is derived from it. Where no end group is shown, it is not given here.

Tests used:
Shaker-IR K+ channel = target: T1, Shaker-IR K+ channel (Drosophila melanogaster, UniProt P08510, DEL6-46); test: Two-electrode voltage clamp on Shaker-IR K+ channel expressed in Xenopus oocytes; format: biochemical; settings: for IC50: TEVC in Xenopus laevis oocytes, ND96 pH 7.4, 18–22 °C, n ≥ 3 per concentration, read-out: IC50, inhibition of Shaker-IR K+ channel
T1 construct: expressed in transfected cells; host or cells: Xenopus laevis oocytes injected with in-vitro-transcribed cRNA
T1 sequence (P08510 with tags, fused parts or gaps DEL6-46): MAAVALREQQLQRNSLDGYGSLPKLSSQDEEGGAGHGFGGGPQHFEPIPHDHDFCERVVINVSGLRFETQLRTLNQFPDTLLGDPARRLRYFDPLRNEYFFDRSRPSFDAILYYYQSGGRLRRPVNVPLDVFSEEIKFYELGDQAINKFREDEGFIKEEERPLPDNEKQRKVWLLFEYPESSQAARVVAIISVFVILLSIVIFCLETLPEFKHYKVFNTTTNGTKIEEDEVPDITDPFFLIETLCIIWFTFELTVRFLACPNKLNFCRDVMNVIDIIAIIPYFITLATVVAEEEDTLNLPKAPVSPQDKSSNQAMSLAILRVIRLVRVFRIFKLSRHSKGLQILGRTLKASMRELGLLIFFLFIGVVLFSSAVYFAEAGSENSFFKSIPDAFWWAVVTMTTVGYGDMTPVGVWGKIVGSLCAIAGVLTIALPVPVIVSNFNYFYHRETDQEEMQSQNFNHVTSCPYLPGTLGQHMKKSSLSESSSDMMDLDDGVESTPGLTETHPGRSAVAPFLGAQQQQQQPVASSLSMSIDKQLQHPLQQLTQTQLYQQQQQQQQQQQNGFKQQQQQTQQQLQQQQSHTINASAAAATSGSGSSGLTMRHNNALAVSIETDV
Experimental: Electrophysiological experiments were carried out in Xenopus laevis oocytes. Linearized plasmids encoding Shaker-IR, hKv1.1, and hKv1.2 channels were transcribed using the T7 mMESSAGE mMACHINE transcription kit (Ambion, Austin, TX, USA). Mature female animals were purchased from Nasco (Fort Atkinson, WI, USA) and were housed in the Aquatic Facility (KU Leuven) in compliance with the regulations of the European Union (EU) concerning the welfare of laboratory animals as declared in Directive 2010/63/EU. The use of X. laevis oocytes was approved by the Animal Ethics Committee of the KU Leuven with license number P186/2019. Stage V–VI oocytes were collected from anesthetized female X. laevis frogs as previously described, with the frogs anesthetized by placement in 0.1% tricaine solution (amino benzoic acid ethyl ester; Merck, Rahway, NJ, USA). Oocyte microinjection was performed using a microinjector (World Precision Instruments, Sarasota, FL, USA), with a programmed cRNA injection volume of 4–10 nL, depending on the channel subtype. The oocytes were incubated in an MBS solution (88 mM NaCl, 1 mM KCl, 2.5 mM NaHCO3, 1 mM MgSO4, and 5 mM HEPES, pH 7.8) supplemented with 50 mg/L gentamicin sulfate and 90 mg/L theophylline. Electrophysiological measurements were performed at room temperature (18–22 °C) using the two-electrode voltage clamp (TEVC) technique. Data were obtained using a GeneClamp 500 amplifier (Axon Instruments, Burlingame, CA, USA), and Clampex9 software (Axon Instruments, Union City, CA, USA) was used for data acquisition and storage. Glass micropipettes were produced using glass capillaries (borosilicate WPI 1B120-6) and drawn in a WPI (World Precision Instruments, Sarasota, FL, USA) manual stretcher. The bath and perfusion solutions were ND96 (96 mM NaCl, 2 mM KCl, 1.8 mM CaCl2, 2 mM MgCl2, and 5 mM HEPES, pH 7.4). Whole-cell currents of oocytes were recorded 1 to 3 days after injection. Current and voltage electrodes were filled with 3 M KCl, and their resistance was adjusted from 0.5 to 1.5 MΩ. […]

[1] = test system: mice (male Slc:ICR strain); test: Mammalian toxicity, intracerebroventricular injection into mice; format: in vivo, mouse; settings: injection dose 50 nmol/kg, in PBS, male Slc:ICR mice 20 g, three animals, monitored for up to 24 h
Experimental: (§1) The insecticidal activity was evaluated as previously described. In this study, we used crickets (Acheta domesticus, 45–55 mg), houseflies (Musca domestica, 13–17 mg), silkworms (Bombyx mori, 225–275 mg), and cockroaches (Periplaneta americana, 75–225 mg). Each peptide in distilled water was injected into the abdominal region of insects. As a negative control, distilled water was used. Ten insects were used for each dose, except for doses of 3.1 and 6.3 nmol in LaIT6(R24A), for which 15 and 20 insects were used, respectively. The number of dead insects was counted 48 h after injection (24 h after injection in the case of houseflies). […] Toxicity to mammals was evaluated as previously described. The sample solution in a PBS buffer was injected intracerebroventricularly into mice (male Slc:ICR strain, 20 g) after anesthetizing with isoflurane. As a negative control, PBS buffer was used. Three animals were used for each measurement, and toxic symptoms were monitored for up to 24 h. The experimental protocol was approved by the Ethical Committee for the Welfare of Animals at Kyoto University.

[2] = test system: crickets (Acheta domesticus); test: Insecticidal activity against crickets (injection, LD50); format: in vivo; settings: injection into abdominal region in distilled water; Acheta domesticus 45–55 mg; ten insects per dose; dead insects counted 48 h after injection; brackets = 95% confidence interval
Experimental: as §1

`CC[C@H](C)[C@@H]1NC(=O)[C@@H]2CSSC[C@H](NC(=O)[C@@H]3CCCN3C(=O)[C@@H](NC(=O)[C@H](CC(N)=O)NC(=O)[C@@H]3CCCN3C(=O)[C@@H]3CCCN3C(=O)[C@@H](NC(=O)[C@@H](N)CO)C(C)C)[C@@H](C)CC)C(=O)N[C@@H](CCC(N)=O)C(=O)N[C@@H](C(C)C)C(=O)N[C@@H]([C@@H](C)O)C(=O)N[C@@H](CC(N)=O)C(=O)N[C@@H](CCC(N)=O)C(=O)N[C@H]3CSSC[C@H](NC(=O)[C@H](CCCNC(=N)N)NC(=O)CNC(=O)[C@H](CC(N)=O)NC1=O)C(=O)N[C@@H](CCCCN)C(=O)N[C@H](C(=O)N[C@@H](Cc1ccc(O)cc1)C(N)=O)CSSC[C@H](NC(=O)[C@@H]1CCCN1C(=O)[C@H](CCCCN)NC(=O)[C@@H]1CCCN1C3=O)C(=O)N[C@@H](CCCNC(=N)N)C(=O)N[C@@H](CCC(=O)O)C(=O)N[C@@H](C)C(=O)N[C@@H]([C@@H](C)O)C(=O)NCC(=O)N[C@@H](CCCNC(=N)N)C(=O)N1CCC[C@H]1C(=O)N[C@@H](CC(N)=O)C(=O)N[C@@H](CO)C(=O)N[C@@H](C)C(=O)N2` [LaIT6(K28A)] (HELM PEPTIDE1{S.V.P.P.N.I.P.C.Q.V.T.N.Q.C.P.K.P.C.R.E.A.T.G.R.P.N.S.A.C.I.N.G.R.C.K.C.Y.[am]}$PEPTIDE1,PEPTIDE1,8:R3-29:R3|PEPTIDE1,PEPTIDE1,14:R3-34:R3|PEPTIDE1,PEPTIDE1,18:R3-36:R3$$$V2.0) was tested, and the IC50 (Shaker-IR K+ channel; 95% CI 0.81–6.7 µM) was 2300 nM and the “IC50 on Shaker-IR relative to wild-type LaIT6 (times higher)” value (Shaker-IR K+ channel; ratio of IC50 LaIT6(K28A) to IC50 LaIT6) was “approximately 300 times”.

`CC[C@H](C)[C@@H]1NC(=O)[C@@H]2CSSC[C@H](NC(=O)[C@@H]3CCCN3C(=O)[C@@H](NC(=O)[C@H](CC(N)=O)NC(=O)[C@@H]3CCCN3C(=O)[C@@H]3CCCN3C(=O)[C@@H](NC(=O)[C@@H](N)CO)C(C)C)[C@@H](C)CC)C(=O)N[C@@H](CCC(N)=O)C(=O)N[C@@H](C(C)C)C(=O)N[C@@H]([C@@H](C)O)C(=O)N[C@@H](CC(N)=O)C(=O)N[C@@H](CCC(N)=O)C(=O)N[C@H]3CSSC[C@H](NC(=O)[C@H](CCCNC(=N)N)NC(=O)CNC(=O)[C@H](CC(N)=O)NC1=O)C(=O)N[C@@H](CCCCN)C(=O)N[C@H](C(=O)N[C@@H](Cc1ccc(O)cc1)C(N)=O)CSSC[C@H](NC(=O)[C@@H]1CCCN1C(=O)[C@H](CCCCN)NC(=O)[C@@H]1CCCN1C3=O)C(=O)N[C@@H](CCCNC(=N)N)C(=O)N[C@@H](CCC(=O)O)C(=O)N[C@@H](C)C(=O)N[C@@H]([C@@H](C)O)C(=O)NCC(=O)N[C@@H](CCCNC(=N)N)C(=O)N1CCC[C@H]1C(=O)N[C@@H](CC(N)=O)C(=O)N[C@@H](CO)C(=O)N[C@@H](CCCCN)C(=O)N2` [LaIT6] (HELM PEPTIDE1{S.V.P.P.N.I.P.C.Q.V.T.N.Q.C.P.K.P.C.R.E.A.T.G.R.P.N.S.K.C.I.N.G.R.C.K.C.Y.[am]}$PEPTIDE1,PEPTIDE1,8:R3-29:R3|PEPTIDE1,PEPTIDE1,14:R3-34:R3|PEPTIDE1,PEPTIDE1,18:R3-36:R3$$$V2.0) was tested, and the “Mammalian toxicity (toxic symptoms) in mice” value [1] was “did not observe any toxic symptoms” and the IC50 (Shaker-IR K+ channel; 95% CI 4.8–14 nM) was 8.2 nM.

“SVPPNIPCQVTNQCPKPCREATGRPNSKCINGRCKCY-OH (disulfide (positions not given here)) [LaIT6(COOH), LaIT6 analog, C-terminal amide group converted to a carboxyl group]” was tested, and the “LD50, insecticidal activity against crickets” value [2] was 19 (14–25) nmol/g.
